From publication PMC8933014, “Diversely substituted sulfamides for fragment-based drug discovery of carbonic anhydrase inhibitors: synthesis and inhibitory profile” (Journal of Enzyme Inhibition and Medicinal Chemistry, 2022)
Structures can show the parent of a compound that is named as a salt. Values belong to the molecule of their own block, whether it stands above or below them.

Legend:
Assay in all cases: stopped-flow CO2 hydration
Format in all cases: biochemical
[1] = target: T1, hCA IX (Homo sapiens, UniProt Q16790); details: read-out: Ki (nM)^b / hCA IX
T1 construct: gene CA9; recombinant, obtained in-house
From the text: stopped-flow CO2 hydration on hCA IX

[2] = target: T2, hCA I (Homo sapiens, UniProt P00915); details: read-out: Ki (nM)^b / hCA I
T2 construct: gene CA1; recombinant, obtained in-house
From the text: stopped-flow CO2 hydration on hCA I

[3] = target: T3, hCA XII (Homo sapiens, UniProt O43570); details: read-out: Ki (nM)^b / hCA XII
T3 construct: gene CA12; recombinant, obtained in-house
From the text: stopped-flow CO2 hydration on hCA XII

[4] = target: T4, hCA II (Homo sapiens, UniProt P00918); details: read-out: Ki (nM)^b / hCA II
T4 construct: gene CA2; recombinant, obtained in-house
From the text: stopped-flow CO2 hydration on hCA II

T2 sequence (P00915 2-261): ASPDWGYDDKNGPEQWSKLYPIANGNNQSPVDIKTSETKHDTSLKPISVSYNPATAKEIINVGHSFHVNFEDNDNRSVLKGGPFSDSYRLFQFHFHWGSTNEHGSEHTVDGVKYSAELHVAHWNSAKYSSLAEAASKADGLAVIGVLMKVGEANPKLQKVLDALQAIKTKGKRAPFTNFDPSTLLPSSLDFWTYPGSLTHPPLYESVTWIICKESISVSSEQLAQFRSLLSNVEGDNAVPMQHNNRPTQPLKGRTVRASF
T3 sequence (O43570 25-354): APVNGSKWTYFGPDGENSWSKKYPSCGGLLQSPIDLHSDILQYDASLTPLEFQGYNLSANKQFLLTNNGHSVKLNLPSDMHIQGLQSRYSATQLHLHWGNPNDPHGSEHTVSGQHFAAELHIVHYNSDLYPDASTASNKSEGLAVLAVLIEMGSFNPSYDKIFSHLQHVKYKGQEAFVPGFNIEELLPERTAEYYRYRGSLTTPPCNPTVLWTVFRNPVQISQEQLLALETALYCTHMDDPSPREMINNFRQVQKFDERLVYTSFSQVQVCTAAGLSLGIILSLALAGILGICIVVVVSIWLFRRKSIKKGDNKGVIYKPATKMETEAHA

Structure (SMILES): NS(=O)(=O)N1CCC(c2ccccc2)CC1 [2h, 4-Phenylpiperidine-1-sulphonamide]
Ki [1]: 58.2 nM | Ki [2]: 359 nM | Ki [3]: 96.7 nM | Ki [4]: 120 nM

Structure (SMILES): NS(=O)(=O)NCC1CCCO1 (centres unmarked) [2e, N-((tetrahydrofuran-2-yl)methyl)sulfamide]
Ki [1]: 92.7 nM | Ki [2]: 38.4 nM | Ki [3]: 98 nM | Ki [4]: 63.4 nM

Structure (SMILES): COC(=O)C1CCCN1S(N)(=O)=O (centres unmarked) [2f, Methyl sulfamoylprolinate]
Ki [1]: 78.2 nM | Ki [2]: 52.1 nM | Ki [3]: 83.6 nM | Ki [4]: 69.8 nM

Structure (SMILES): NS(=O)(=O)N1CCC(O)CC1 [2a, 4-Hydroxypiperidine-1-sulphonamide]
Ki [1]: 54.2 nM | Ki [2]: 75.6 nM | Ki [3]: 25.3 nM | Ki [4]: 42.7 nM

Structure (SMILES): NS(=O)(=O)NCc1ccc(F)cc1 [2c, N-(4-Fluorobenzyl)sulfamide]
Ki [1]: 30.7 nM | Ki [2]: 126 nM | Ki [3]: 51.7 nM | Ki [4]: 70.5 nM

Structure (SMILES): NS(=O)(=O)NC1CCCc2ccccc21 (centres unmarked) [2d, N-(1,2,3,4-Tetrahydronaphthalen-1-yl)sulfamide]
Ki [1]: 36.8 nM | Ki [2]: 121 nM | Ki [3]: 59.7 nM | Ki [4]: 42.6 nM

Structure (SMILES): CN1CCN(S(N)(=O)=O)CC1 [2b, 4-Methylpiperazine-1-sulphonamide]
Ki [1]: 58.6 nM | Ki [2]: 64.2 nM | Ki [3]: 52.5 nM | Ki [4]: 32.1 nM

Structure (SMILES): CN1CCC(NS(N)(=O)=O)CC1 [2g, (1-Methylpiperidin-4-yl)sulfamide]
Ki [1]: 63.2 nM | Ki [2]: 89.7 nM | Ki [3]: 38.4 nM | Ki [4]: 52.1 nM

Structure (SMILES): NS(=O)(=O)NCc1cccs1 [2k, (Thiophen-2-ylmethyl) sulfamide]
Ki [1]: 73.2 nM | Ki [2]: 22.6 nM | Ki [3]: 66.8 nM | Ki [4]: 48.2 nM

Structure (SMILES): NS(=O)(=O)NCc1cccnc1 [2j, (Pyridin-3-ylmethyl)sulfamide]
Ki [1]: 29.5 nM | Ki [2]: 98.5 nM | Ki [3]: 16.5 nM | Ki [4]: 90.2 nM

Structure (SMILES): CN(C)CCN(Cc1ccccc1)S(N)(=O)=O [2i, Benzyl (2-(dimethylamino)ethyl)sulfamide]
Ki [1]: 65.1 nM | Ki [2]: 28.4 nM | Ki [3]: 19.7 nM | Ki [4]: 39.8 nM

The remaining lines, values ahead:

Ki [1]: 46.2 nM | Ki [2]: 88.2 nM | Ki [3]: 40.2 nM | Ki [4]: 59.4 nM
Structure (SMILES): NC(=O)C1CCN(S(N)(=O)=O)CC1 [2p, 1-Sulfamoylpiperidine-4-carboxamide]

Ki [1]: 72.5 nM | Ki [2]: 497 nM | Ki [3]: 35.1 nM | Ki [4]: 99.3 nM
Structure (SMILES): NS(=O)(=O)N1CCC(N2CCCCC2)CC1 [2n, [1,4'-Bipiperidine]-1'-sulphonamide]

Ki [1]: 58.1 nM | Ki [2]: 62.8 nM | Ki [3]: 25.9 nM | Ki [4]: 42.8 nM
Structure (SMILES): CCOC(=O)C1CCN(S(N)(=O)=O)CC1 [2m, Ethyl 1-sulfamoylpiperidine-4-carboxylate]

Ki [1]: 102 nM | Ki [2]: 723 nM | Ki [3]: 95.7 nM | Ki [4]: 472 nM
Structure (SMILES): NS(=O)(=O)N1CCc2ccccc21 [2v, Indoline-1-sulphonamide]

Ki [1]: 78.2 nM | Ki [2]: 68.9 nM | Ki [3]: 100 nM | Ki [4]: 52.9 nM
Structure (SMILES): NS(=O)(=O)N1CCNCC1 [2q, Piperazine-1-sulphonamide hydrochloride]

Ki [1]: 94.7 nM | Ki [2]: 868 nM | Ki [3]: 116 nM | Ki [4]: 316 nM
Structure (SMILES): CC1Cc2ccccc2N1S(N)(=O)=O (centres unmarked) [2r, 2-Methylindoline-1-sulphonamide]

Ki [1]: 126 nM | Ki [2]: 59.6 nM | Ki [3]: 72.5 nM | Ki [4]: 92.3 nM
Structure (SMILES): CCN(CC)CCN(C)S(N)(=O)=O [2l, (2-(Diethylamino)ethyl)(methyl)sulfamide]

Ki [1]: 34.2 nM | Ki [2]: 231 nM | Ki [3]: 114 nM | Ki [4]: 89.5 nM
Structure (SMILES): NS(=O)(=O)N1CCCc2ccccc21 [2t, 3,4-Dihydroquinoline-1(2H)-sulphonamide]

Ki [1]: 82.1 nM | Ki [2]: 59.2 nM | Ki [3]: 101 nM | Ki [4]: 66.9 nM
Structure (SMILES): NS(=O)(=O)N1CCOCC1 [2o, Morpholine-4-sulphonamide]

Ki [1]: 38.5 nM | Ki [2]: 45.7 nM | Ki [3]: 224 nM | Ki [4]: 76.3 nM
Structure (SMILES): NS(=O)(=O)Nc1ccc(F)cc1F [2w, N-(2,4-Difluorophenyl)sulfamide]

Ki [1]: 25.4 nM | Ki [2]: 160 nM | Ki [3]: 72.3 nM | Ki [4]: 56.7 nM
Structure (SMILES): NS(=O)(=O)Nc1cccc2ccccc12 [2u, N-(Naphthalen-1-yl)sulfamide]

Ki [1]: 68 nM | Ki [2]: 29.6 nM | Ki [3]: 39.3 nM | Ki [4]: 59.4 nM
Structure (SMILES): NS(=O)(=O)Nc1ncccn1 [2s, N-(Pyrimidin-2-yl)sulfamide]
